We go through 20 compounds from patent publication US11590139B2, “Substituted aminopurine compounds, compositions thereof, and methods of treatment therewith” (Signal Pharmaceuticals, LLC, priority 2014, dated 2023).

Molecules are shown by their SMILES.

For one assay, the system named is Lox-IMVI melanoma cell line. Kind of assay: Lox-IMVI anti-proliferative assay (growth inhibition, Cell Titer-Glo). As to conditions: Homo sapiens; IC50 activity level in the cell-based Lox-IMVI anti-proliferative assay; read-out: Activity. In kind it is cell-based, human. The gist of the method: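 Viability read by ATP luminescence (Cell Titer-Glo) at t0 and after 72 h at 37 °C, 5% CO2, with normalisation to DMSO-treated cells. Compound tested at 0.5 nM–10 μM in 3-fold, 10-point series (0.2% DMSO final) on Lox-IMVI in RPMI+10% FBS; IC50 by 4-parameter sigmoidal fit.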
In general terms: ATP-based viability assays read luminescence as a measure of living cells.
`N#Cc1ccc(Nc2nc3cnc(NC4CCOCC4)nc3n2[C@H]2CC[C@@H](C(N)=O)CC2)c(F)c1F` [Example 379, (1s,4s)-4-(8-(4-cyano-2,3-difluorophenylamino)-2-(tetrahydro-2H-pyran-4-ylamino)-9H-purin-9-yl)cyclohexanecarboxamide]: the IC50 is greater than 1000 nM.
For `NC(=O)[C@H]1CC[C@@H](n2c(Nc3c(F)cc(F)cc3F)nc3cnc(N[C@@H]4CCOC[C@@H]4F)nc32)CC1` [Example 307, (1S,4s)-4-(2-((3R,4R)-3-fluorotetrahydro-2H-pyran-4-ylamino)-8-(2,4,6-trifluorophenylamino)-9H-purin-9-yl)cyclohexanecarboxamide], the IC50 was greater than 1000 nM.
For the compound `N#Cc1cc(Cl)c(Nc2nc3cnc(NC4CCC4)nc3n2[C@H]2CC[C@@H](C(N)=O)CC2)c(Cl)c1` [Example 392, (1s,4s)-4-(2-(cyclobutylamino)-8-(2,6-dichloro-4-cyanophenylamino)-9H-purin-9-yl)cyclohexanecarboxamide], the IC50 was less than 250 nM.
On the same count and under the same terms, in the case of `NC(=O)[C@H]1CC[C@@H](n2c(Nc3c(F)ccc(F)c3F)nc3cnc(N[C@@H]4CC[C@@H](O)C4)nc32)CC1` [Example 218, (1S,4s)-4-(2-((1R,3R)-3-hydroxycyclopentylamino)-8-(2,3,6-trifluorophenylamino)-9H-purin-9-yl)cyclohexanecarboxamide] it was greater than 1000 nM; in that of `NC(=O)[C@H]1CC[C@@H](n2c(Nc3c(F)cc(F)cc3Cl)nc3cnc(N[C@H]4COC[C@@H]4O)nc32)CC1` [Example 312, (1R,4s)-4-(8-(2-chloro-4,6-difluorophenylamino)-2-((3S,4R)-4-hydroxytetrahydrofuran-3-ylamino)-9H-purin-9-yl)cyclohexanecarboxamide], greater than 1000 nM; in that of `Cc1cc(F)c(Nc2nc3cnc(NC4CCOCC4)nc3n2[C@H]2CC[C@@H](C(N)=O)CC2)cc1F` [Example 106, (1s,4s)-4-(8-(2,5-difluoro-4-methylphenylamino)-2-(tetrahydro-2H-pyran-4-ylamino)-9H-purin-9-yl)cyclohexanecarboxamide], greater than 1000 nM.
The same measure, in the same setting: in the case of `NC(=O)[C@H]1CC[C@@H](n2c(Nc3c(F)cc(Cl)cc3F)nc3cnc(N[C@H]4C[C@@H](O)C4)nc32)CC1` [Example 322, (1s,4s)-4-(8-(4-chloro-2,6-difluorophenylamino)-2-((1s,3s)-3-hydroxycyclobutylamino)-9H-purin-9-yl)cyclohexanecarboxamide] it was greater than 1000 nM; in that of `Cc1cc(Cl)c(Nc2nc3cnc(NC4CCOCC4)nc3n2[C@H]2CC[C@@H](C(N)=O)CC2)c(Cl)c1` [Example 116, (1s,4s)-4-(8-(2,6-dichloro-4-methylphenylamino)-2-(tetrahydro-2H-pyran-4-ylamino)-9H-purin-9-yl)cyclohexanecarboxamide], greater than 1000 nM; in that of `NC(=O)[C@H]1CC[C@@H](n2c(Nc3cc(F)c(Cl)cc3F)nc3cnc(N[C@@H]4CCC[C@H](O)C4)nc32)CC1` [Example 363, (1S,4s)-4-(8-(4-chloro-2,5-difluorophenylamino)-2-((1R,3S)-3-hydroxycyclohexylamino)-9H-purin-9-yl)cyclohexanecarboxamide], greater than 1000 nM.

Staying with this assay, now noted: Homo sapiens; Lox-IMVI anti-proliferative assay, IC50 activity level; read-out: Activity.
`C[C@@H]1COCC[C@@H]1Nc1ncc2nc(Nc3c(Cl)cc(Cl)cc3Cl)n([C@H]3CC[C@@H](C(N)=O)CC3)c2n1` [Example 502, (1R,4s)-4-(2-((3S,4S)-3-methyltetrahydro-2H-pyran-4-ylamino)-8-(2,4,6-trichlorophenylamino)-9H-purin-9-yl)cyclohexanecarboxamide]: the IC50 was 250 to 500 nM.
Still for that read-out and setting: in the case of `C[C@]1(C(N)=O)CC[C@@H](n2c(Nc3c(Cl)cc(C(F)(F)F)cc3Cl)nc3cnc(N[C@@H]4CCC[C@H](O)C4)nc32)CC1` [Example 577, (1S,4s)-4-(8-(2,6-dichloro-4-(trifluoromethyl)phenylamino)-2-((1R,3S)-3-hydroxycyclohexylamino)-9H-purin-9-yl)-1-methylcyclohexanecarboxamide] it was greater than 1000 nM; in that of `C[C@]1(C(N)=O)CC[C@H](n2c(Nc3c(Cl)cc(Cl)cc3Cl)nc3cnc(NC4CCCC4)nc32)CC1` [Example 490, (1r,4r)-4-(2-(cyclopentylamino)-8-(2,4,6-trichlorophenylamino)-9H-purin-9-yl)-1-methylcyclohexanecarboxamide], greater than 1000 nM.
For `C[C@]1(C(N)=O)CC[C@H](n2c(Nc3c(Cl)cc(C#N)cc3Cl)nc3cnc(NC4CCCC4)nc32)CC1` [Example 485, (1r,4r)-4-(2-(cyclopentylamino)-8-(2,6-dichloro-4-cyanophenylamino)-9H-purin-9-yl)-1-methylcyclohexanecarboxamide], the IC50 was 500 to 1000 nM.

Staying with this assay, now noted: Homo sapiens; Lox-IMVI melanoma cell line, anti-proliferative assay; read-out: Activity (IC50 activity level).
As for `NC(=O)[C@H]1CC[C@@H](n2c(Nc3c(F)cc(F)cc3F)nc3cnc(N[C@@H]4CCCN(C(=O)Nc5ccccc5)C4)nc32)CC1` [Example 781, (R)-3-(9-((1s,4S)-4-carbamoylcyclohexyl)-8-(2,4,6-trifluorophenylamino)-9H-purin-2-ylamino)-N-phenylpiperidine-1-carboxamide], the IC50 was greater than 1000 nM.
For `C[C@]1(C(N)=O)CC[C@@H](n2c(Nc3c(F)cc(Cl)cc3Cl)nc3cnc(N[C@H]4CCC[C@H](O)C4)nc32)CC1` [Example 612, (1R,4s)-4-(8-(2,4-dichloro-6-fluorophenylamino)-2-((1S,3S)-3-hydroxycyclohexylamino)-9H-purin-9-yl)-1-methylcyclohexanecarboxamide], the IC50 is less than 250 nM.
On to `NC(=O)[C@H]1CC[C@@H](n2c(Nc3c(Cl)cc(F)cc3Cl)nc3cnc(NC4CCC(c5ncno5)CC4)nc32)CC1` (some centres unmarked) [Example 679, (1s,4s)-4-(2-(4-(1,2,4-oxadiazol-5-yl)cyclohexylamino)-8-(2,6-dichloro-4-fluorophenylamino)-9H-purin-9-yl)cyclohexanecarboxamide], for which the IC50 was greater than 1000 nM.
For the compound `CC(C)OC(=O)N1CCC[C@@H](Nc2ncc3nc(Nc4c(F)cc(F)cc4Cl)n([C@H]4CC[C@@H](C(N)=O)CC4)c3n2)C1` [Example 767, (R)-isopropyl 3-(9-((1s,4S)-4-carbamoylcyclohexyl)-8-(2-chloro-4,6-difluorophenylamino)-9H-purin-2-ylamino)piperidine-1-carboxylate], the IC50 is greater than 1000 nM.
On to `C[C@]1(C(N)=O)CC[C@@H](n2c(Nc3c(F)cc(Cl)cc3Cl)nc3cnc(NC4CC(F)(F)C4)nc32)CC1` [Example 651, (1s,4s)-4-(8-(2,4-dichloro-6-fluorophenylamino)-2-(3,3-difluorocyclobutylamino)-9H-purin-9-yl)-1-methylcyclohexanecarboxamide], for which the IC50 is less than 250 nM.
In the case of `Cc1ccc(S(=O)(=O)N2CCC[C@@H](Nc3ncc4nc(Nc5c(Cl)cc(C#N)cc5Cl)n([C@H]5CC[C@@H](C(N)=O)CC5)c4n3)C2)cc1` [Example 789, (1S,4s)-4-(8-(2,6-dichloro-4-cyanophenylamino)-2-((R)-1-tosylpiperidin-3-ylamino)-9H-purin-9-yl)cyclohexanecarboxamide], the IC50 is greater than 1000 nM.
Regarding `C[C@]1(C(N)=O)CC[C@@H](n2c(Nc3c(F)cc(F)cc3F)nc3cnc(N[C@@H]4CCC[C@@H](O)C4)nc32)CC1` [Example 617, (1S,4s)-4-(2-((1R,3R)-3-hydroxycyclohexylamino)-8-(2,4,6-trifluorophenylamino)-9H-purin-9-yl)-1-methylcyclohexanecarboxamide], the IC50 is greater than 1000 nM.
